Experimental findings from US8999966B2, “Compounds that are ERK inhibitors” (Merck Sharp & Dohme Corp., priority 2010, dated 2015) are described below.

fully phosphorylated, active Mouse ERK2 protein, sequence (P63085 whole entry): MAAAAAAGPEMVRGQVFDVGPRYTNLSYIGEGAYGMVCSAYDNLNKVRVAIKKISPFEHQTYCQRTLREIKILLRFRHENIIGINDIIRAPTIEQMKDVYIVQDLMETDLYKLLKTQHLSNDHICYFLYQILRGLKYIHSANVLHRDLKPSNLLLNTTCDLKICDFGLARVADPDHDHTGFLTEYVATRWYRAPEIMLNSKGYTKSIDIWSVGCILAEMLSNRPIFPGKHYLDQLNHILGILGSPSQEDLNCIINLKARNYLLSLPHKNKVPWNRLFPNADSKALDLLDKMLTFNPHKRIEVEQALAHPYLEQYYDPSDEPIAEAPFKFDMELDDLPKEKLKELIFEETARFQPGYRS

This test addresses fully phosphorylated, active Mouse ERK2 protein (Mus musculus, UniProt P63085). Kind of test: Active ERK2 assay (AERK2), IMAP format. In kind it is biochemical. As to conditions: activated ERK2, IMAP fluorescence polarization, 30 μM ATP. The method, then:
14 μl of kinase buffer (10 mM Tris.HCl pH 7.2, 10 mM MgCl2, 0.01% Tween-20, 1 mM DTT) containing 0.4 ng unphosphorylated Mouse ERK2 protein can be added to each well of a black 384-well assay plate. […] DMSO concentration during initial incubation is 6.7%. ERK2 activity can be determined to be insensitive to DMSO concentrations up to 20%. ERK2 can then be activated and it's kinase activity can be measured by the addition of 10 μl kinase buffer with the following components (final concentration per reaction): 2 ng active (phosphorylated) human MEK1 protein and 4 μM (total) ERK2 IMAP substrate peptides (3.9 μM unlabeled IPTTPITTTYFFFK-CONH2 and 100 nM IPTTPITTTYFFFK(5-carboxyfluorescein)-CONH2) and 30 μM ATP. DMSO concentration during ERK activation can be 4%. After one hour, reactions can be terminated by addition of 60 μl IMAP detections beads in binding buffer (Molecular Devices). Binding can be allowed to equilibrate for 30 minutes before reading the plate on an LJL Analyst Fluorescence Polarization plate reader. […] Active compounds can be reconfirmed in an independent assay.
Activated ERK2 activity was also determined in the IMAP assay format using the procedure outlined above. 1 μl of 25× compound was added to 14 μl of kinase buffer containing 0.25 ng fully phosphorylated, active Mouse ERK2 protein. Following a 30 minute incubation, the reactions were initiated by addition of 10 μl of kinase buffer containing 1 μM ERK2 IMAP substrate peptide (0.9 μM unlabeled IPTTPITTTYFFFK-CONH2 and 100 nM IPTTPITTTYFFFK(5-carboxyfluorescein)-CONH2) and 30 μM ATP. Reactions proceeded for 30 minutes before termination by addition of 60 μl IMAP detection beads in binding buffer. Plates were read as above after 30 minute binding equilibration. Active compounds were reconfirmed in an independent assay.
With `Clc1cc(-c2n[nH]c3ccc(-c4nnc(C5CCCN(Cc6ccccc6)C5)o4)cc23)ccn1` (centres unmarked) [Example 309, 3-(2-CHLORO-4-PYRIDINYL)- 5-[5-[1-(PHENYLMETHYL)-3- PIPERIDINYL]-1,3,4- OXADIAZOL-2-YL]-1H- INDAZOLE], the IC50 was greater than 1000 nM.
The value for `CCn1cc(-c2n[nH]c3ccc(-c4nnc([C@@H]5CCCN(Cc6csc7ccccc67)C5)o4)cc23)cn1` [Example 339, 5-[5-[1-(BENZO[b]THIEN-3- YLMETHYL)-3(R)- PIPERIDINYL]-1,3,4- OXADIAZOL-2-YL]-3-(1- ETHYL-1H-PYRAZOL-4-YL)- 1H-INDAZOLE] was greater than 1000 nM; that for `Fc1cccc(F)c1CN1CCC[C@@H](c2nc(-c3ccc4[nH]nc(-c5ccc(C(F)(F)F)cc5)c4c3)n[nH]2)C1` [Example 301, 5-[5-[1-[(2,6- DIFLUOROPHENYL)METHYL]- 3(R)-PIPERIDINYL]-1H- 1,2,4-TRIAZOL-3-YL]-3-[4- (TRIFLUOROMETHYL)PHEN- YL]-1H-INDAZOLE] was no less than 504 nM; that for `Fc1cccc(F)c1CN1CC=CC[C@@H]1c1nc(-c2ccc3[nH]nc(-c4ccc5c(c4)CCO5)c3c2)n[nH]1` [Example 254, 5-[5-[1-[(2,6- DIFLUOROPHENYL)METHYL]- 1,2,3,6-TETRAHYDRO- 2(R)-PYRIDINYL]-1H-1,2,4- TRIAZOL-3-YL]-3-(2,3- DIHYDRO-5- BENZOFURANYL)-1H- INDAZOLE] was no less than 504 nM.
As for `COc1cccc(CN2CCC[C@@H](c3nnc(-c4ccc5[nH]nc(-c6ccnc(Cl)c6)c5c4)o3)C2)n1` [Example 361, 3-(2-CHLORO-4-PYRIDINYL)- 5-[5-[1-[(6-METHOXY-2- PYRIDINYL)METHYL]-3(R)- PIPERIDINYL]-1,3,4- OXADIAZOL-2-YL]-1H- INDAZOLE], the 50% inhibitory concentration (IC50) is no less than 504 nM.
Turning to `Cc1n[nH]c2ccc(-c3n[nH]c4ccc(-n5cc([C@@H]6CCCN(Cc7c(F)cccc7F)C6)nn5)cc34)cc12` [Example 247, 5-[4-[1-[(2,6- DIFLUOROPHENYL)METHYL]- 3(R)-PIPERIDINYL]-1H- 1,2,3-TRIAZOL-1-YL]-3′- METHYL-3,5′-BI-1H- INDAZOLE], the half-inhibitory concentration (IC50) is no less than 504 nM.
For `COc1cccc(F)c1CN1CCCC(c2ccn(-c3ccc4[nH]nc(-c5ccncc5)c4c3)n2)C1` (centres unmarked) [Example 368, 5-[3-[1-[(2-FLUORO-6- METHOXYPHENYL)METHYL]- 3-PIPERIDINYL]-1H- PYRAZOL-1-YL]-3-(4- PYRIDINYL)-1H-INDAZOLE] the value was greater than 1000 nM.
The value for `CC1(C)Cc2cc(-c3n[nH]c4ccc(-c5n[nH]c([C@@H]6CCCN(Cc7c(F)cccc7F)C6)n5)cc34)ccc2O1` [Example 300, 5-[5-[1-[(2,6- DIFLUOROPHENYL)METHYL]- 3(R)-PIPERIDINYL]-1H- 1,2,4-TRIAZOL-3-YL]-3-(2,3- DIHYDRO-2,2-DIMETHYL-5- BENZOFURANYL)-1H- INDAZOLE] was no less than 504 nM; that for `Fc1ccccc1CN1CCC[C@@H](c2nnc(-c3ccc4[nH]nc(-c5ccnc(Cl)c5)c4c3)o2)C1` [Example 353, 3-(2-CHLORO-4-PYRIDINYL)- 5-[5-[1-[(2- FLUOROPHENYL)METHYL]- 3(R)-PIPERIDINYL]-1,3,4- OXADIAZOL-2-YL]-1H- INDAZOLE] was no less than 504 nM.
The value for `COc1cccc(F)c1CN1CCOC(c2cn(-c3ccc4[nH]nc(-c5ccncc5)c4c3)nn2)C1` (centres unmarked) [Example 251, 5-[4-[4-[(2-FLUORO-6- METHOXYPHENYL)METHYL]- 2-MORPHOLINYL]-1H- 1,2,3-TRIAZOL-1-YL]-3-(4- PYRIDINYL)-1H-INDAZOLE] was 0.3 to 10.4 nM.
In turn, `Clc1cc(-c2n[nH]c3ccc(-c4nnc([C@@H]5CCCN(Cc6cc7ccccc7s6)C5)o4)cc23)ccn1` [Example 359, 5-[5-[1-(BENZO[b]THIEN-2- YLMETHYL)-3(R)- PIPERIDINYL]-1,3,4- OXADIAZOL-2-YL]-3-(2- CHLORO-4-PYRIDINYL)-1H- INDAZOLE] yielded an IC50 of no less than 504 nM.
